Results taken from the supplement of paper PMC11061612.

Key:
[1] = system: BFTC-905 (Bladder Carcinoma); assay: combination Emax (second highest fraction inhibited in the dose matrix, 72 h); higher = more inhibition; extreme values may be limits of the assay
Summary of the method: (§1)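 Cell lines in DMEM/F12 or RPMI with 10% FBS were plated in 1536-well plates, held 24 hours at 37°C, 5% CO2, then given two-drug dose matrices for 72 hours (DMSO typically 0.2%). Viability was read by CellTiter-Glo 2.0 luminescence and scaled as inhibition from 0 (vehicle wells) to 1 (blank wells). Combination Emax is the second-highest inhibition in the matrix; Bliss excess is observed combination effect minus expected EA + EB − EA·EB, EA and EB being single-agent effects.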

U251 (Low Grade Glioma) [2] = assay: as above
Summary of the method: as §1

ES1 (Ewing's Sarcoma) [3] = assay: as above
Summary of the method: as §1

WIL2-NS (Non-Cancerous) [4] = assay: as above
Summary of the method: as §1

ES8 (Ewing's Sarcoma) [5] = assay: as above
Summary of the method: as §1

[6] = system: DND-41 (T-Lymphoblastic Leukemia); assay: as above
Summary of the method: as §1

[7] = system: K-562 (Chronic Myelogenous Leukemia); assay: as above
Summary of the method: as §1

TC-71 (Ewing's Sarcoma) [8] = assay: as above
Summary of the method: as §1

[9] = system: GR-ST (B-Lymphoblastic Leukemia); assay: as above
Summary of the method: as §1

[10] = system: SW1417 (Colorectal Carcinoma); assay: as above
Summary of the method: as §1

NCI-H2818 (Mesothelioma) [11] = assay: as above
Summary of the method: as §1

[12] = system: L-540 (Hodgkin's Lymphoma); assay: as above
Summary of the method: as §1

[13] = system: SW837 (Colorectal Carcinoma); assay: as above
Summary of the method: as §1

[14] = system: SR (Other Blood Carcinomas); assay: as above
Summary of the method: as §1

[15] = system: CAMA-1 (Breast Carcinoma); assay: as above
Summary of the method: as §1

[16] = system: MKN28 (Gastric Carcinoma); assay: as above
Summary of the method: as §1

[17] = system: TE-6 (Esophageal Squamous Cell Carcinoma); assay: as above
Summary of the method: as §1

[18] = system: BL-41 (Burkitt's Lymphoma); assay: as above
Summary of the method: as §1

WM-115 (Melanoma) [19] = assay: as above
Summary of the method: as §1

[20] = system: NCI-H1792 (Lung Adenocarcinoma); assay: as above
Summary of the method: as §1

[21] = system: BFTC-905 (Bladder Carcinoma); assay: Bliss excess, mean over the matrix (fraction); higher = more synergy
Summary of the method: as §1

U251 (Low Grade Glioma) [22] = assay: as above
Summary of the method: as §1

ES1 (Ewing's Sarcoma) [23] = assay: as above
Summary of the method: as §1

WIL2-NS (Non-Cancerous) [24] = assay: as above
Summary of the method: as §1

ES8 (Ewing's Sarcoma) [25] = assay: as above
Summary of the method: as §1

[26] = system: DND-41 (T-Lymphoblastic Leukemia); assay: as above
Summary of the method: as §1

[27] = system: K-562 (Chronic Myelogenous Leukemia); assay: as above
Summary of the method: as §1

TC-71 (Ewing's Sarcoma) [28] = assay: as above
Summary of the method: as §1

[29] = system: GR-ST (B-Lymphoblastic Leukemia); assay: as above
Summary of the method: as §1

[30] = system: SW1417 (Colorectal Carcinoma); assay: as above
Summary of the method: as §1

NCI-H2818 (Mesothelioma) [31] = assay: as above
Summary of the method: as §1

[32] = system: L-540 (Hodgkin's Lymphoma); assay: as above
Summary of the method: as §1

[33] = system: SW837 (Colorectal Carcinoma); assay: as above
Summary of the method: as §1

[34] = system: SR (Other Blood Carcinomas); assay: as above
Summary of the method: as §1

[35] = system: CAMA-1 (Breast Carcinoma); assay: as above
Summary of the method: as §1

[36] = system: MKN28 (Gastric Carcinoma); assay: as above
Summary of the method: as §1

[37] = system: TE-6 (Esophageal Squamous Cell Carcinoma); assay: as above
Summary of the method: as §1

[38] = system: BL-41 (Burkitt's Lymphoma); assay: as above
Summary of the method: as §1

WM-115 (Melanoma) [39] = assay: as above
Summary of the method: as §1

[40] = system: NCI-H1792 (Lung Adenocarcinoma); assay: as above
Summary of the method: as §1
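Throughout, for Bliss excess, mean over the matrix: after 72 h of two-drug dosing.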

| Compound | combination Emax [1] | combination Emax (U251 (Low Grade Glioma) [2]) | combination Emax (ES1 (Ewing's Sarcoma) [3]) | combination Emax (WIL2-NS (Non-Cancerous) [4]) | combination Emax (ES8 (Ewing's Sarcoma) [5]) | combination Emax [6] | combination Emax [7] | combination Emax (TC-71 (Ewing's Sarcoma) [8]) | combination Emax [9] | combination Emax [10] | combination Emax (NCI-H2818 (Mesothelioma) [11]) | combination Emax [12] | combination Emax [13] | combination Emax [14] | combination Emax [15] | combination Emax [16] | combination Emax [17] | combination Emax [18] | combination Emax (WM-115 (Melanoma) [19]) | combination Emax [20] | Bliss excess [21] | Bliss excess (U251 (Low Grade Glioma) [22]) | Bliss excess (ES1 (Ewing's Sarcoma) [23]) | Bliss excess (WIL2-NS (Non-Cancerous) [24]) | Bliss excess (ES8 (Ewing's Sarcoma) [25]) | Bliss excess [26] | Bliss excess [27] | Bliss excess (TC-71 (Ewing's Sarcoma) [28]) | Bliss excess [29] | Bliss excess [30] | Bliss excess (NCI-H2818 (Mesothelioma) [31]) | Bliss excess [32] | Bliss excess [33] | Bliss excess [34] | Bliss excess [35] | Bliss excess [36] | Bliss excess [37] | Bliss excess [38] | Bliss excess (WM-115 (Melanoma) [39]) | Bliss excess [40] |
| --- | --- | --- | --- | --- | --- | --- | --- | --- | --- | --- | --- | --- | --- | --- | --- | --- | --- | --- | --- | --- | --- | --- | --- | --- | --- | --- | --- | --- | --- | --- | --- | --- | --- | --- | --- | --- | --- | --- | --- | --- |
| CS(=O)(=O)CCNCc1ccc(-c2ccc3ncnc(Nc4ccc(OCc5cccc(F)c5)c(Cl)c4)c3c2)o1 [Lapatinib] + NC1(c2ccc(-c3nc4ccn5c(=O)[nH]nc5c4cc3-c3ccccc3)cc2)CCC1 [MK-2206] (first compound max 10 µM, 7x7, partner max 10 µM) | 0.888 | 0.454 | 0.97 | 0.674 | 0.851 | 0.946 | 0.602 | 0.589 | 0.981 | 0.459 | 0.351 | 0.918 | 0.633 | 0.819 | 0.909 | 0.687 | 0.816 | 0.942 | 0.855 | 0.785 | 0.0323 | -0.0083 | 0.0341 | 0.0569 | -0.004 | 0.0377 | -0.0367 | -0.0342 | -0.0298 | 0.0395 | -0.0155 | -0.0209 | 0.0106 | 0.0147 | 0.0301 | -0.0445 | -0.0159 | 0.0176 | -0.0093 | 0.0243 |
| Cc1nc(-c2cn3c(n2)-c2ccc(-c4cnn(C(C)(C)C(N)=O)c4)cc2OCC3)n(C(C)C)n1 [Taselisib] + O=C(Nc1ccc2[nH]nc(-c3ccncc3)c2c1)[C@@H]1CCN(CC(=O)N2CCN(c3ccc(-c4ncccn4)cc3)CC2)C1 [SCH772984] (first compound max 10 µM, 7x7, partner max 5 µM) | 0.999 |  | 0.77 | 0.728 | 0.84 | 0.611 | 0.53 |  | 0.706 | 0.756 | 0.372 | 0.474 | 0.747 | 0.681 | 0.563 | 0.451 |  | 0.263 | 0.951 | 0.966 | 0.172 |  | 0.0604 | 0.106 | 0.117 | 0.14 | 0.0488 |  | -0.0418 | 0.0781 | 0.0096 | 0.0023 | 0.0556 | 0.177 | 0.0216 | 0.0966 |  | 0.0266 | 0.0394 | 0.0818 |
| CC1(C)CCC(CN2CCN(c3ccc(C(=O)NS(=O)(=O)c4ccc(NCC5CCOCC5)c([N+](=O)[O-])c4)c(Oc4cnc5[nH]ccc5c4)c3)CC2)=C(c2ccc(Cl)cc2)C1 [Venetoclax] + CS(=O)(=O)CCNCc1ccc(-c2ccc3ncnc(Nc4ccc(OCc5cccc(F)c5)c(Cl)c4)c3c2)o1 [Lapatinib] (first compound max 1 µM, 7x7, partner max 10 µM) | 0.254 |  | 0.381 | 0.348 | 0.506 | 0.81 | 0.451 |  | 0.934 | 0.136 | 0.174 | 0.532 | 0.185 | 0.36 | 0.162 | 0.397 |  | 0.855 | 0.237 | 0.345 | -0.0591 |  | -0.0215 | 0.0039 | -0.0229 | -0.0268 | -0.0039 |  | -0.0246 | -0.0168 | -0.0651 | -0.005 | -0.0498 | 0.0557 | -0.0271 | -0.0303 |  | 0.0434 | -0.0897 | -0.0311 |
